{
  "source": "PubChem BioAssay (NCI)",
  "assay_in_all_cases": "NCI tumour cell line growth inhibition, 48 h",
  "key": {"SK-MEL-2 melanoma": {"test_system": "SK-MEL-2 melanoma"}, "SNB-75 CNS": {"test_system": "SNB-75 CNS"}, "HCC-2998 colon": {"test_system": "HCC-2998 colon"}, "786-0 renal": {"test_system": "786-0 renal"}, "NCI-H226 lung": {"test_system": "NCI-H226 lung"}, "A498 renal": {"test_system": "A498 renal"}, "COLO 205 colon": {"test_system": "COLO 205 colon"}, "DU-145 prostate": {"test_system": "DU-145 prostate"}, "CCRF-CEM leukemia": {"test_system": "CCRF-CEM leukemia"}, "HOP-92 NSCLC": {"test_system": "HOP-92 NSCLC"}, "T-47D breast": {"test_system": "T-47D breast"}, "A549 NSCLC": {"test_system": "A549 NSCLC"}, "MALME-3M melanoma": {"test_system": "MALME-3M melanoma"}, "NCI-H522 lung": {"test_system": "NCI-H522 lung"}, "NCI-H460 lung": {"test_system": "NCI-H460 lung"}, "HL-60(TB) leukemia": {"test_system": "HL-60(TB) leukemia"}, "RPMI-8226 leukemia": {"test_system": "RPMI-8226 leukemia"}, "LOX IMVI melanoma": {"test_system": "LOX IMVI melanoma"}, "K-562 leukemia": {"test_system": "K-562 leukemia"}, "OVCAR-8 ovarian": {"test_system": "OVCAR-8 ovarian"}, "SF-539 CNS": {"test_system": "SF-539 CNS"}, "TK-10 renal": {"test_system": "TK-10 renal"}, "HT29 colon": {"test_system": "HT29 colon"}, "SK-MEL-5 melanoma": {"test_system": "SK-MEL-5 melanoma"}, "RXF 393 renal": {"test_system": "RXF 393 renal"}, "UO-31 renal": {"test_system": "UO-31 renal"}, "UACC-257 melanoma": {"test_system": "UACC-257 melanoma"}, "SK-OV-3 ovarian": {"test_system": "SK-OV-3 ovarian"}, "HCT-116 colon": {"test_system": "HCT-116 colon"}},
  "note": "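Five concentrations, 48 hours, 96-well plates. Abbreviation: GI50, concentration required for 50% inhibition of growth. At the TGI there is no net growth.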",
  "data": [
    {"smiles": "CCOP(=O)(OCC)OC[C@]12CC[C@@H](C)[C@H](C)C1C1=CC[C@@H]3[C@@]4(C)CCCNC(C)(C)[C@@H]4CC[C@@]3(C)[C@]1(C)CC2", "note": "(some centres not stated)", "values": [
      {"measurement": "TGI", "setting": "SK-MEL-2 melanoma", "value": 20.7, "unit": "µM"},
      {"measurement": "GI50", "setting": "SNB-75 CNS", "value": 2.83, "unit": "µM"},
      {"measurement": "TGI", "setting": "SNB-75 CNS", "value": 15.6, "unit": "µM"},
      {"measurement": "GI50", "setting": "HCC-2998 colon", "value": 1.85, "unit": "µM"},
      {"measurement": "TGI", "setting": "HCC-2998 colon", "value": 3.42, "unit": "µM"},
      {"measurement": "GI50", "setting": "786-0 renal", "value": 1.51, "unit": "µM"},
      {"measurement": "TGI", "setting": "786-0 renal", "value": 2.98, "unit": "µM"},
      {"measurement": "GI50", "setting": "NCI-H226 lung", "value": 4.98, "unit": "µM"},
      {"measurement": "TGI", "setting": "NCI-H226 lung", "value": 23.3, "unit": "µM"},
      {"measurement": "GI50", "setting": "A498 renal", "value": 5.08, "unit": "µM"},
      {"measurement": "TGI", "setting": "A498 renal", "value": 21.8, "unit": "µM"},
      {"measurement": "GI50", "setting": "COLO 205 colon", "value": 2.06, "unit": "µM"},
      {"measurement": "TGI", "setting": "COLO 205 colon", "value": 4.23, "unit": "µM"},
      {"measurement": "GI50", "setting": "DU-145 prostate", "value": 1.94, "unit": "µM"},
      {"measurement": "TGI", "setting": "DU-145 prostate", "value": 3.71, "unit": "µM"},
      {"measurement": "GI50", "setting": "CCRF-CEM leukemia", "value": 2.53, "unit": "µM"},
      {"measurement": "TGI", "setting": "CCRF-CEM leukemia", "value": 8.14, "unit": "µM"},
      {"measurement": "GI50", "setting": "HOP-92 NSCLC", "value": 1.51, "unit": "µM"},
      {"measurement": "TGI", "setting": "HOP-92 NSCLC", "value": 4.51, "unit": "µM"},
      {"measurement": "GI50", "setting": "T-47D breast", "value": 1.6, "unit": "µM"},
      {"measurement": "TGI", "setting": "T-47D breast", "value": 3.78, "unit": "µM"},
      {"measurement": "GI50", "setting": "A549 NSCLC", "value": 1.78, "unit": "µM"},
      {"measurement": "TGI", "setting": "A549 NSCLC", "value": 3.54, "unit": "µM"},
      {"measurement": "GI50", "setting": "MALME-3M melanoma", "value": 1.65, "unit": "µM"},
      {"measurement": "TGI", "setting": "MALME-3M melanoma", "value": 3.12, "unit": "µM"},
      {"measurement": "GI50", "setting": "NCI-H522 lung", "value": 1.84, "unit": "µM"},
      {"measurement": "TGI", "setting": "NCI-H522 lung", "value": 3.91, "unit": "µM"},
      {"measurement": "GI50", "setting": "NCI-H460 lung", "value": 1.83, "unit": "µM"},
      {"measurement": "TGI", "setting": "NCI-H460 lung", "value": 3.46, "unit": "µM"},
      {"measurement": "GI50", "setting": "HL-60(TB) leukemia", "value": 1.67, "unit": "µM"},
      {"measurement": "TGI", "setting": "HL-60(TB) leukemia", "value": 3.47, "unit": "µM"},
      {"measurement": "GI50", "setting": "RPMI-8226 leukemia", "value": 2.2, "unit": "µM"},
      {"measurement": "TGI", "setting": "RPMI-8226 leukemia", "value": 5.7, "unit": "µM"},
      {"measurement": "GI50", "setting": "LOX IMVI melanoma", "value": 1.21, "unit": "µM"},
      {"measurement": "TGI", "setting": "LOX IMVI melanoma", "value": 2.56, "unit": "µM"},
      {"measurement": "GI50", "setting": "K-562 leukemia", "value": 1.57, "unit": "µM"},
      {"measurement": "TGI", "setting": "K-562 leukemia", "value": 3.32, "unit": "µM"},
      {"measurement": "GI50", "setting": "OVCAR-8 ovarian", "value": 1.9, "unit": "µM"},
      {"measurement": "TGI", "setting": "OVCAR-8 ovarian", "value": 3.96, "unit": "µM"},
      {"measurement": "GI50", "setting": "SF-539 CNS", "value": 1.63, "unit": "µM"},
      {"measurement": "TGI", "setting": "SF-539 CNS", "value": 3.04, "unit": "µM"},
      {"measurement": "GI50", "setting": "TK-10 renal", "value": 3.49, "unit": "µM"},
      {"measurement": "TGI", "setting": "TK-10 renal", "value": 12.8, "unit": "µM"},
      {"measurement": "GI50", "setting": "HT29 colon", "value": 1.88, "unit": "µM"},
      {"measurement": "TGI", "setting": "HT29 colon", "value": 4.09, "unit": "µM"},
      {"measurement": "GI50", "setting": "SK-MEL-5 melanoma", "value": 1.69, "unit": "µM"},
      {"measurement": "TGI", "setting": "SK-MEL-5 melanoma", "value": 3.11, "unit": "µM"},
      {"measurement": "GI50", "setting": "RXF 393 renal", "value": 1.31, "unit": "µM"},
      {"measurement": "TGI", "setting": "RXF 393 renal", "value": 2.69, "unit": "µM"},
      {"measurement": "GI50", "setting": "UO-31 renal", "value": 1.44, "unit": "µM"},
      {"measurement": "TGI", "setting": "UO-31 renal", "value": 2.93, "unit": "µM"},
      {"measurement": "GI50", "setting": "UACC-257 melanoma", "value": 2.13, "unit": "µM"},
      {"measurement": "TGI", "setting": "UACC-257 melanoma", "value": 4.95, "unit": "µM"},
      {"measurement": "GI50", "setting": "SK-OV-3 ovarian", "value": 3.27, "unit": "µM"},
      {"measurement": "TGI", "setting": "SK-OV-3 ovarian", "value": 10.6, "unit": "µM"},
      {"measurement": "GI50", "setting": "HCT-116 colon", "value": 1.69, "unit": "µM"},
      {"measurement": "TGI", "setting": "HCT-116 colon", "value": 3.21, "unit": "µM"}
    ]}
  ]
}
